Legend:
[1] = system: immune cell profile; settings: infants fed formula supplemented with bovine OPN; cited from earlier work
[2] = system: lipopolysaccharide (LPS); settings: early life dietary supplementation; cited from earlier work
[3] = system: pneumonia virus of mice (PVM); test: Neonatal mouse model of PVM-induced bronchiolitis: lung immune cells counted by multi-colour flow cytometry; format: in vivo, mice (C57BL/6 pups)
Description: (§1) C57BL/6 pups were either nursed by OPN-sufficient or OPN-deficient dams.
(§2) At postnatal day 5 (PND5), mice receiving OPN-deficient mother's milk were fed with either a whey protein concentrate (WPC) enriched in OPN (OPNenriched group) or a control WPC (OPN− group) once daily for 15 consecutive days.
(§3) In a similar way, at PND5, mice receiving OPN-sufficient mother's milk were fed with control WPC (OPN+ group) once daily for 15 consecutive days.
(§4) At PND10, all animals were infected intra-nasally (i.n.) with 10 PFU of PVM (J3666) to induce bronchiolitis.
(§5) The used OPN-enriched WPC contained 79 g protein per 100 g, and 729 mg OPN per 100 g. The pups in the OPNenriched group were fed the OPN-enriched WPC as a supplement to deliver 12 μg OPN per average gram of bodyweight per day.
To investigate whether OPN intervention has an impact on immune cell composition, the number of pDCs, CD4+ and CD8+ T cells and neutrophils in lung tissues 5 and/or 9 days post infection were enumerated using multi-colour flow cytometry. Isolated single-cell suspensions from the lungs were washed with PBS/2% FCS, and red blood cells were lysed using Gey's buffer. Cells were washed again, followed by incubation with anti-FcγRIII/II for 15 min at 4° C. Cells were stained using fluorescently labeled antibodies described in the gating strategies herein, with DAPI, 7-AAD, or Zombie NIR used to exclude dead cells.

[4] = system: pneumonia virus of mice (PVM); test: Neonatal mouse model of PVM-induced bronchiolitis: airway smooth muscle remodeling by α-smooth muscle actin immunohistochemistry; format: in vivo, mice (C57BL/6 pups); settings: 9 dpi; OPNenriched group, remodeling dysregulated in OPN− group; FIG. 7
Description: as §1, §2, §3, §4, §5

[5] = system: pneumonia virus of mice (PVM); test: Neonatal mouse model of PVM-induced bronchiolitis: viral load (PVM-positive airway epithelial cells) and airway epithelial sloughing; format: in vivo, mice (C57BL/6 pups)
Description: as §1, §2, §3, §4, §5
To assess whether OPN intervention has an impact on pathogen expansion, viral load in PVM-infected mice was assessed as the percentage of PVM-positive airway epithelial cells (AEC) stained with an antibody against a specific PVM-glycoprotein. […] AEC detachment is a key feature of viral bronchiolitis and known to be associated with disease severity and viral load. Sloughing of the airway epithelium was quantified by measuring the length of sloughed airway epithelium and expressing this as a percentage of the basement membrane length of a single airway.

Substance	immune cell profile of infants [1]	inflammation resulting from LPS administration [2]	number of CD4+ cells in lung tissues ([3]; 5 dpi (peak of viral infection), OPNenriched group vs OPN− group, FIG. 4a)	CD4+ T cell accumulation in the lungs ([3]; 9 dpi (peak of immunopathology), OPNenriched group vs OPN− group, FIG. 4b)	neutrophil infiltration to the airways (granulocytic inflammation) ([3]; 9 dpi, FIG. 6)	number of pDCs in the lung ([3]; OPNenriched group vs OPN− group, FIG. 3)	pathological airway smooth muscle remodeling (ASM area) [4]	virus infected (PVM-positive) airway epithelial cells (AEC), percentage ([5]; 5 dpi, OPNenriched group vs OPN− group, 12 μg OPN per gram bodyweight per day, once daily for 15 days from PND5, FIG. 2a)	sloughing of the airway epithelium (percentage of basement membrane length) ([5]; 9 dpi, OPNenriched group vs OPN+ group, sloughing significantly elevated in OPN− group, FIG. 2b)
bovine OPN: Bovine milk osteopontin, 262 residues, used as dietary supplement in cited studies	more similar to breastfed infants	reduced inflammation							
osteopontin [OPN]			significantly higher number	significant decline	reduced granulocytic inflammation	increased number	attenuated pathological airway smooth muscle remodeling	significant decrease	close to the OPN+ group

Source: US20250144176A1, “COMPOSITIONS COMPRISING OSTEOPONTIN (OPN)” (SOCIETE DES PRODUITS NESTLE S.A., priority 2022, published 2025)
